“Also recorded” adds a separate entry of the source.
Experiments:
[1] = tested on: SELH-deficient LN229 cells; assay: CCK8 assay in SELH-deficient (CRISPR/CAS9) LN229 cells; format: cell-based; details: LN229 SELH knock out
Excerpt: SELH knockout LN229 cell lines and B16 were generated using the CRISPR/Cas9 technique described by Shalem et al., Science 343: 84 (2014). The gDNA for targeting SELH was designed as follows: Oligo 1, 5′-[…]-3′; Oligo 2, 5′-[…]-3′; the gDNA for targeting mouse SELH was designed as follows: Oligo 1, 5′-[…]-3′; Oligo 2, 5′-[…]-3′, and subcloned into Cas9 carrying vector (pX330). The two resultant plasmids and puromycin-expressing vector (pPGK-puro) were co-transfected at a ratio of 1:1:1 into LN229 or B16 cells using Lipofectamine 2000 (Invitrogen). Twenty-four hours later, the transfected cells were subjected to puromycin (Sigma) at 1 μg/mL for 7 days. One week after selection, the surviving clones were expanded, followed by extraction of total protein for standard western blotting analysis.
Cell viability was measured by Cell Counting Kit-8 (CCK-8, Dojindo Molecular Technologies, Tokyo, Japan). Cells were seeded in 96-well plates at a density of 3×10^3 cells/well and cultured for 24 hours before treatment with ISP I at different concentration. […] The absorbance in each well at a wavelength of OD450 was detected by the Synergy H1 microplate reader, a product of BioTek (Winooski, Vt. USA).

[2] = tested on: other proteins (antioxidant components); assay: Surface plasmon resonance (SPR) assay, other antioxidant components; format: binding
[3] = molecular target: T1, SELH (Homo sapiens, UniProt Q8IZQ5); assay: Cellular thermal shift assay (CETSA) / thermo-stability assay; format: binding; set-up: endogenous in cells; host or cells: LN229, 786-O; details: vs DMSO
T1 sequence (Q8IZQ5 1-122): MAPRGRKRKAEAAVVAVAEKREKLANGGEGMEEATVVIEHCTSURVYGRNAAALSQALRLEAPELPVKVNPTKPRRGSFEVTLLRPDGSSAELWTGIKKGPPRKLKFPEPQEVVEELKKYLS
Excerpt: Next, the inventors used a thermo-stability assay to confirm SELH was targeted by ISP I in LN229 and 786-O cell lines. The principle of the assay is based on altered protein thermal stabilization/destabilization due to ligand binding in living cells. […] (FIG. 5B and FIG. 6A). To verify further the specificity of ISP I's targeting of SELH, the inventors designed a surface plasmon resonance assay to assess the interaction of ISP I with SELH synthesized in bacteria.
CETSA experiments were performed to determine the ISP I-related ligand induced shifts. Intact and live cells in a 10-cm dish were harvested, washed and resuspended in PBS with protease inhibitor cocktail. Protein of the cells was extracted by freeze-thaw more than three times, using liquid nitrogen. The supernatant was centrifuged at 20, 000 g for 20 min at 4° C. Then the samples were aliquoted to several groups incubated with different concentrations of ISP I for 1 hour. After that, samples were aliquoted into PCR tubes and thereafter heated at gradient temperature ranging from 40° C. to 80° C. for 3 min. Then the samples were centrifuged again and resolved using 4-12% SDS-PAGE followed by western blot experiments.

[4] = tested on: murine B16 cells (lung metastasis); assay: B16 melanoma lung metastasis mouse model; format: in vivo, C57BL/6 mice; details: 35 mg/kg i.p. every day, 12 days; vs saline
Method: In addition to the aforementioned xenograft tumor models, the anti-tumor activity of ISP I was assessed in a metastatic murine melanoma (B16) model.
For metastasis study, C57BL/6 mice (4-5 weeks) from Charles River Laboratories (Wilmington, Mass. USA) were assigned randomly to one or another of two groups, 9 animals per group. B16-F10 mouse skin melanoma cells (2×10^5) were resuspended in 100 μl saline and injected through tail vein. After treatment with ISP I at 35 mg/kg for 12 days, all mice were euthanized, and the lungs were examined for counting black metastasis dots.

[5] = tested on: NRF2, HMOX1, NQO1; assay: Real time RT-PCR of NRF2 and downstream genes; format: cell-based; details: for NRF2 expression (RT-PCR): 24 hours
Method: NRF2 (NFE2L2) is a transcription factor that regulates redox homeostasis by binding to the regulatory regions of antioxidant response elements (ARE). […] Glioblastoma (LN229 and U251) cells and RCC (786-O and RCC4) cells were treated with ISP I and evaluated for NRF2 expression levels. […] Considering this finding, the inventors evaluated SELH's regulatory role on NRF2 by measuring NRF2 expression in cells that either overexpressed or had silenced SELH expression.
Total RNA was extracted using PureLink RNA Mini Kit, a product of ThermoFisher Scientific (Waltham, Mass. USA), according manufacturer's protocol. First strand cDNA was synthesized with iScript cDNA Synthesis Kit, a product of Bio-Rad (Hercules, Calif. USA). Then the inventors performed real time PCR by SsoAdvanced Universal SYBR Green Supermix kit, a product of Bio-Rad, to quantify the expression levels of genes NRF2, HMOX1, and NQO1. The primer sequences are described in Liu et al., J. Nat'l Cancer Inst. 111: 1033 (2019). Data were analyzed and normalized to 18s rRNA as the reference gene for further statistics.

COC1C(O)CC(=O)OC(C)CC=CC=CC(OC2CCC(N(C)C)C(C)O2)C(C)CC(CC=O)C1OC1OC(C)C(OC2CC(C)(O)C(OC(=O)CC(C)C)C(C)O2)C(N(C)C)C1O (stereo not drawn) [ISP I, 4″-isolvalerylspiramycin I]
sensitivity of SELH-deficient cells vs wild type (CCK8) [1]: resistance to ISP I; also recorded: SELH-deficient cells were resistant to ISP I treatment
binding to other proteins (SPR) [2]: does not bind with the other proteins
thermal stabilisation of SELH (western blot) ([3]; 786-O cells): ISP I-protected SELH was observed along with a rise in temperature; also recorded: protective effect of ISP I on SELH was present over a range of increasing temperatures
thermal stabilisation of SELH (western blot) ([3]; LN229 cells): ISP I-protected SELH was observed along with the rise of temperature; also recorded: protective effect of ISP I on SELH was present over a range of increasing temperatures
lung tumor nodules (melanoma spots) [4]: significantly reduced lung tumor nodules
expression of NRF2 downstream genes HMOX1 and NQO1 ([5]; 786-O and RCC4): increase in expression of the NRF2 downstream genes HMOX1 and NQO1; also recorded: significant increase in the downstream targets of NRF2 signaling
NRF2 expression (RT-PCR) ([5]; 786-O and RCC4, 10 μg/ml): increase in NRF2 expression; also recorded: NRF2 expression was significantly upregulated
expression of NRF2 downstream genes HMOX1 and NQO1 ([5]; LN229 and U251): increase of the expression of NRF2 downstream genes HMOX1 and NQO1; also recorded: significant increase in the downstream targets of NRF2 signaling
NRF2 expression (RT-PCR) ([5]; LN229 and U251, 10 μg/mL): increase in NRF2 expression; also recorded: NRF2 expression was significantly upregulated

— patent publication US11351185B2, “Use of isovalerylspiramycins as anti-cancer agents to inhibit metastasis” (priority 2020, dated 2022)
